Data reported in article PMC6100046, “Plasma Pharmacokinetic Determination of Canagliflozin and Its Metabolites in a Type 2 Diabetic Rat Model by UPLC-MS/MS” (Molecules : A Journal of Synthetic Chemistry and Natural …, 2018).
Read-outs that look alike come from different tables or passages of the source.

What was measured:
[1] = Plasma pharmacokinetics of canagliflozin and its metabolites after oral administration to CTRL and type 2 diabetic (DM) rats, UPLC-MS/MS; type: in vivo, rat; conditions: for AUC(0-inf) / Tmax / MRT last / half-life / Cmax: po; for AUC(0-inf): AUC0–∞, heading: AUC0–∞; for MRT last: read-out: MRT0–t; for half-life: read-out: t1/2z (converted); for Cmax: metabolites semi-quantitative; for Concentration of metabolite in rat plasma (in words): rat plasma after canagliflozin, UPLC-TOF-MS/MS identification
Excerpt: The determination of metabolite concentrations was done by a semi-quantitative analysis method: the peak area of the metabolites was divided by the peak area of the original drug and then multiplied by the concentration of original drug.
The type 2 diabetic model was developed using a combination of a high-fat diet (HFD) and low-dose STZ injection. Briefly, rats were randomized into CTRL (control) and DM (diabetes mellitus) groups. The CTRL rats received a standard diet, whereas DM rats were fed high-fat food, which consisted of 63.5–66.5% normal chow, 1% cholesterol, 0.5% sodium cholate, 10% yolk, 12–15% lard, and 10% sucrose. DM rats were given an intraperitoneal injection of STZ (35 mg/kg, dissolved in citrate buffer, pH 4.5) after 4 weeks of dietary alteration, and CTRL rats received an equivalent injection of citrate buffer only. The blood glucose concentrations, food intake, and body weights of the rats were monitored weekly. Rats with non-fasting blood glucose levels lower than 16.67 mmol/L (300 mg/dL) were excluded from the DM group. Biochemical parameters (serum triglycerides, serum total cholesterol, and insulin) were measured on day 28 after the injection of STZ. The homeostasis model assessment of insulin resistance (HOMA-IR) was calculated by a standard equation to examine insulin sensitivity. The following experiments were performed on day 35 after STZ injection.
We performed the pharmacokinetic studies of canagliflozin after oral administration by gavage, and all rats used in this research were fasted for 12 h before dosing. CTRL and DM group rats (5 rats in each group) received a dose of canagliflozin at 20 mg/kg that was suspended in 0.5% sodium carboxymethylcellulose. A blood quantity of less than 0.3 mL was sampled via the oculi chorioideae vein after administration of canagliflozin at 1, 2, 3, 4, 5, 6, 7, 8, 10, 12, 24, 36 and 48 h under light ether anesthesia. All blood samples were immediately centrifuged at 5000 rpm for 10 min and the plasma was collected and frozen at −40 °C until analysis.
The acquisition software used were Analyst TF 1.7.1 software and Analyst software (AB Sciex, Redwood city, CA, USA). The pharmacokinetic parameters were processed by non-compartmental analysis using DAS 2.1.1 software (Mathematical Pharmacology Professional Committee of China, Shanghai, China). Data are presented as means ± SDs. Statistical differences were evaluated by Student’s t-test. A p-value of less than 0.05 indicated a statistically significant difference (SPSS 18.0 software, SPSS Inc., Chicago, IL, USA).

[2] = Stability of canagliflozin in rat plasma samples (QC samples); type: in vitro ADME; conditions: for Concentration found after storage (Mean ± SD): rat plasma, n = 5
Procedure: High, medium and low levels of QC concentrations were used to evaluate the stability of canagliflozin in plasma under the experimental conditions.
The specificity of the method was evaluated by comparing the chromatography of rat blank plasma samples with blank rat plasma spiked with standards at high, medium, low concentrations including LLOQ and rat plasma samples after oral administration of canagliflozin. The intra-day accuracy and precision were determined by analyzing five replicates of the QC samples at high, medium, and low concentrations within one day, while the inter-day accuracy and precision were conducted by determining five replicates of four levels of QCs on 3 separate days. The assay’s accuracy was represented by the […]. The precision was represented as the relative standard deviation (RSD) of the replicates. The matrix effect was determined by dividing the peak areas of canagliflozin spiked into extracted blank plasma by that of the analyte spiked in the mobile phase. The extraction recovery of canagliflozin and IS was assessed by comparing the peak areas of extracted plasma. […] […] The freeze (−80 °C)–thaw (room temperature) stability of the analytes in rat plasma was tested via three freeze–thaw cycles. […] In regard to the storage stability, the QC samples were prepared and stored at −80 °C for 30 days.

[3] = rat, plasma, 20 mg/kg, CTRL rats, canagliflozin 20 mg/kg oral, mean ± SD, n = 5
[4] = rat, plasma, 20 mg/kg, DM (type 2 diabetic) rats, canagliflozin 20 mg/kg oral, mean ± SD, n = 5

`Cc1ccc([C@@H]2O[C@H](CO)[C@@H](O)[C@H](O)[C@H]2O)cc1Cc1ccc(-c2ccc(F)cc2)s1` [Canagliflozin] gave a CL/F ([1]; rat, plasma, 20 mg/kg, heading: CLz/F, CTRL rats, canagliflozin 20 mg/kg oral, mean ± SD, n = 5) of 5.96 mL/min/kg, an AUC(0-inf) ([1]; rat, plasma, 20 mg/kg, CTRL rats, canagliflozin 20 mg/kg oral, plasma, mean ± SD, n = 5) of 56300 ng·h/mL and an AUC(0-inf) ([1]; rat, plasma, 20 mg/kg, DM (type 2 diabetic) rats, canagliflozin 20 mg/kg oral, plasma, mean ± SD, n = 5) of 28400 ng·h/mL. It also gave a Tmax [1, 3] of 3.6 ± 0.89 h, an MRT last [1, 3] of 14.1 ± 1.58 h and a half-life [1, 3] of 12.9 ± 2.64 h. For the same compound, the Cmax [1, 3] was 3310 ± 566 ng/mL, the Cmax [1, 4] was 2230 ± 559 ng/mL and the Tmax [1, 4] was 3.2 ± 0.45 h. The MRT last [1, 4] was 12.3 ± 2.77 h, the half-life [1, 4] was 10.2 ± 3.49 h and the “Stability in rat plasma (in words)” value ([2]; auto-sampler temperature (4 °C), 24 h) was “good stability”. For the same compound, the Concentration found after storage (Mean ± SD) ([2]; autosampler (4 °C) for 24 h, nominal concentration 25) was 25.7 ± 0.33 ng/mL, the Concentration found after storage (Mean ± SD) ([2]; autosampler (4 °C) for 24 h, nominal concentration 500) was 503.1 ± 4.41 ng/mL and the Concentration found after storage (Mean ± SD) ([2]; autosampler (4 °C) for 24 h, nominal concentration 800) was 806.8 ± 5.64 ng/mL. For the same compound, the Concentration found after storage (Mean ± SD) ([2]; room temperature (25 °C) for 24 h, nominal concentration 25) was 26.2 ± 0.96 ng/mL, the Concentration found after storage (Mean ± SD) ([2]; room temperature (25 °C) for 24 h, nominal concentration 500) was 504.4 ± 3.18 ng/mL and the Concentration found after storage (Mean ± SD) ([2]; room temperature (25 °C) for 24 h, nominal concentration 800) was 807.3 ± 6.12 ng/mL. For the same compound, the Concentration found after storage (Mean ± SD) ([2]; three freeze–thaw cycles (each at −80 °C for 24 h), nominal concentration 25) was 26 ± 1.02 ng/mL, the Concentration found after storage (Mean ± SD) ([2]; three freeze–thaw cycles (each at −80 °C for 24 h), nominal concentration 500) was 505.2 ± 4.12 ng/mL and the Concentration found after storage (Mean ± SD) ([2]; three freeze–thaw cycles (each at −80 °C for 24 h), nominal concentration 800) was 806.2 ± 4.19 ng/mL. For the same compound, the Concentration found after storage (Mean ± SD) ([2]; −80 °C for 30 days, nominal concentration 25) was 26.9 ± 0.85 ng/mL, the Concentration found after storage (Mean ± SD) ([2]; −80 °C for 30 days, nominal concentration 500) was 504.3 ± 2.14 ng/mL and the Concentration found after storage (Mean ± SD) ([2]; −80 °C for 30 days, nominal concentration 800) was 806.3 ± 3.51 ng/mL. For the same compound, the “Stability in rat plasma (in words)” value ([2]; room temperature (25 °C) for 24 h) was “stable”, the “Stability in rat plasma (in words)” value ([2]; storage conditions (−80 °C) for at least 30 days) was “stable” and the “Stability in rat plasma (in words)” value ([2]; −80 °C followed by three freeze and thaw cycles) was “good stability”.
For `Cc1ccc(C2OC(CO)C(O)C(O)C2OC2OC(C(=O)O)C(O)C(O)C2O)cc1Cc1ccc(-c2ccc(F)cc2)s1` (stereo not shown) [M5], the “Concentration of metabolite in rat plasma (in words)” value (“Concentration of metabolite” for short) [1] was “high”, the Tmax [1, 3] was 1.8 ± 0.84 h and the half-life [1, 3] was 14.6 ± 18.3 h. It also gave a Cmax [1, 3] of 126 ± 31.1 ng/mL, a Cmax [1, 4] of 160 ± 54.4 ng/mL and a Tmax [1, 4] of 1.67 ± 0.58 h. For the same compound, the half-life [1, 4] was 13.3 ± 6.25 h.
For `Cc1ccc(C2OC(CO)C(O)C(OC3OC(C(=O)O)C(O)C(O)C3O)C2O)cc1Cc1ccc(-c2ccc(F)cc2)s1` (stereo not shown) [M7], the “Concentration of metabolite” value [1] was “high”, the Tmax [1, 3] was 2.02 ± 0.11 h and the half-life [1, 3] was 10 ± 6.45 h. For the same compound, the Cmax [1, 3] was 44.9 ± 20.5 ng/mL, the Cmax [1, 4] was 90.6 ± 18.7 ng/mL and the Tmax [1, 4] was 1.81 ± 0.12 h. The half-life [1, 4] was 14.5 ± 4.86 h.
For `OCc1ccc([C@@H]2O[C@H](CO)[C@@H](O)[C@H](O)[C@H]2O)cc1Cc1ccc(-c2ccc(F)cc2)s1` [M8], the “Concentration of metabolite” value [1] was “almost too low to quantify”.
With `Cc1ccc(C2OC(CO)C(O)C(O)C2O)cc1C(O)c1ccc(-c2ccc(F)cc2)s1` (stereo not shown) [M9] the “Concentration of metabolite” value [1] was “high”, the Tmax [1, 3] was 5.01 ± 0.11 h and the half-life [1, 3] was 10.7 ± 1.63 h. It also gave a Cmax [1, 3] of 97.5 ± 10.8 ng/mL, a Cmax [1, 4] of 161 ± 10.5 ng/mL and a Tmax [1, 4] of 4.75 ± 0.5 h. For the same compound, the half-life [1, 4] was 12.8 ± 8.81 h.
